Some test systems named below: A498 renal; HCC-2998 colon; HOP-92 NSCLC; RXF 393 renal; TK-10 renal; K-562 leukemia; HOP-62 NSCLC; HL-60(TB) leukemia; SW-620 colon; BT-549 breast.
Common to all, as to assay: inhibition of tumour cell growth, NCI panel, 48 h

From PubChem BioAssay (NCI) come the findings set out here.

The structures appear in SMILES notation.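 Values below derive from 48-hour exposures of cells grown in 96-well plates, with endpoints linearly interpolated between the two concentrations bracketing the appropriate inhibition level. At the GI50, growth is halved. The concentration for full growth arrest is given as TGI.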 Some results are limits rather than exact numbers.

In the case of `C[C@H](N[C@H]1CCC[C@]1(O)C#Cc1ccc2c(c1)OCO2)c1ccccc1`, the TGI in the assay with A498 renal, in the assay with HCC-2998 colon, in the assay on HOP-92 NSCLC, in the assay on RXF 393 renal, in the assay on TK-10 renal and with K-562 leukemia was over 25 µM each time. The TGI in the assay with HOP-62 NSCLC and in the assay on HL-60(TB) leukemia was over 25 µM each time.

Take `N#CCCOCN(CO)c1nc(N(CO)COCCC#N)nc(N(CO)COCCC#N)n1`: the TGI with A498 renal was over 100 µM; in the assay with HOP-92 NSCLC, 45.8 µM; with RXF 393 renal it was 38.4 µM; in the assay on TK-10 renal, 91.2 µM; with K-562 leukemia, 61.2 µM; in the assay on SW-620 colon, 29.5 µM. Further, the TGI is over 100 µM in the assay on HOP-62 NSCLC and 41.6 µM with HL-60(TB) leukemia.

Regarding `COc1cc2c(cc1OC)C1Cc3cc(OC)c(OC)cc3C(C2)O1`, the TGI in the assay on HCC-2998 colon, with HOP-92 NSCLC, with RXF 393 renal, with TK-10 renal, with K-562 leukemia and with SW-620 colon was over 100 µM each time. Further, the TGI in the assay on BT-549 breast and with HOP-62 NSCLC was over 100 µM each time.

On to `CCOC(=O)C(=O)Nc1c(CC)cccc1C(C)CC` (stereo not given), for which the TGI with A498 renal, in the assay on HCC-2998 colon, in the assay with HOP-92 NSCLC, in the assay with RXF 393 renal, in the assay with TK-10 renal and in the assay with K-562 leukemia was over 100 µM in each case. Also, the TGI in the assay on SW-620 colon, in the assay with HOP-62 NSCLC and in the assay on HL-60(TB) leukemia was over 100 µM in each case.

On to `CCCC1=C(C(=O)OCC)C(c2ccccc2OC)C(C#N)=C(N)O1` (stereo not given), for which the GI50 in the assay on A498 renal is 62.2 µM; with HCC-2998 colon it was 77.3 µM; in the assay on HOP-92 NSCLC, 37.7 µM; in the assay on RXF 393 renal, 46.5 µM; in the assay with TK-10 renal, 46.1 µM; with K-562 leukemia, 31.9 µM. In addition, the GI50 is 27.8 µM in the assay on SW-620 colon, 62.9 µM in the assay with BT-549 breast, over 100 µM with HOP-62 NSCLC and 33.7 µM in the assay on HL-60(TB) leukemia. For the same compound, the TGI with A498 renal, in the assay with HCC-2998 colon, in the assay with HOP-92 NSCLC, in the assay with RXF 393 renal, in the assay on TK-10 renal and with K-562 leukemia was over 100 µM throughout. The TGI in the assay on SW-620 colon, with BT-549 breast, with HOP-62 NSCLC and with HL-60(TB) leukemia was over 100 µM in each case.

For `Cc1c2cc[n+](C)cc2c(C)c2c1[nH]c1ccc(Cl)cc12`, the TGI in the assay with A498 renal was determined as 1.4 µM; with HCC-2998 colon, 13.8 µM; in the assay with HOP-92 NSCLC, 26.5 µM; in the assay on RXF 393 renal, 19.1 µM; in the assay with TK-10 renal it was 61.3 µM; in the assay on K-562 leukemia, 45.5 µM. Further, the TGI in the assay with SW-620 colon turned out to be 19.4 µM; in the assay with BT-549 breast, 4.16 µM; with HOP-62 NSCLC, 6.95 µM; in the assay on HL-60(TB) leukemia, 21.5 µM.

Consider `Nc1cccc2c1C1=NNC(=O)CC1C2` (stereo not given), for which the TGI in the assay with A498 renal is over 100 µM; in the assay with HCC-2998 colon, over 100 µM; in the assay with HOP-92 NSCLC, 4.46 µM; in the assay with RXF 393 renal it was over 100 µM; in the assay on K-562 leukemia, over 100 µM; in the assay on SW-620 colon, over 100 µM. Moreover, the TGI in the assay on HOP-62 NSCLC and in the assay with HL-60(TB) leukemia was over 100 µM each time.

As for `O=C(NCCNc1nccc(-c2c(-c3cccc(O)c3)nc3sccn23)n1)Nc1cccc(C(F)(F)F)c1`, the GI50 in the assay on A498 renal is 7.33 µM; in the assay on HCC-2998 colon, 2.68 µM; with HOP-92 NSCLC, 2.19 µM; in the assay with RXF 393 renal it was 2.41 µM; in the assay on TK-10 renal it was 3.66 µM; with K-562 leukemia, 3.42 µM. For the same compound, the values for the GI50 in the assay on SW-620 colon, with HOP-62 NSCLC and with HL-60(TB) leukemia were 3.84 µM, 8.33 µM and 2.85 µM, respectively. Besides, the TGI came out at 32.6 µM in the assay with A498 renal; 5.77 µM with HCC-2998 colon; 9.38 µM in the assay on HOP-92 NSCLC; 5.1 µM in the assay on RXF 393 renal; 11.1 µM in the assay with TK-10 renal; 57.1 µM in the assay on K-562 leukemia. The figures for the TGI with SW-620 colon, with HOP-62 NSCLC and in the assay on HL-60(TB) leukemia were 13.4 µM, 23.4 µM and 6.03 µM, respectively.

With `COc1cc(NC(=O)CSc2nc3ccccc3c(=O)n2CCc2ccccc2)cc(OC)c1OC`, the GI50 in the assay on HOP-92 NSCLC is 0.587 µM; in the assay on RXF 393 renal, 1.57 µM; with TK-10 renal it was 1.81 µM; in the assay on BT-549 breast, 3.22 µM; with HOP-62 NSCLC, 2.12 µM; in the assay on HL-60(TB) leukemia it was over 100 µM. Also, the TGI in the assay on HOP-92 NSCLC is 3.44 µM; in the assay on RXF 393 renal, 3.69 µM; with TK-10 renal it was 3.81 µM; with BT-549 breast it was 9.47 µM; in the assay on HOP-62 NSCLC, 4.88 µM; in the assay with HL-60(TB) leukemia, over 100 µM.

As to `O=C(Nc1cccc([N+](=O)[O-])c1)C(=O)C(C(=O)c1ccccc1F)C1OC(=O)C2C=CC=CC21` (stereo not given), the TGI in the assay with A498 renal was over 100 µM; in the assay with HCC-2998 colon, over 100 µM; in the assay on HOP-92 NSCLC, over 100 µM; in the assay on RXF 393 renal, 48.6 µM; with TK-10 renal, over 100 µM; in the assay with K-562 leukemia it was over 100 µM. For the same compound, the TGI was over 100 µM in the assay with SW-620 colon, over 100 µM in the assay on HOP-62 NSCLC and 64 µM with HL-60(TB) leukemia.

Take `c1ccc(CCN2CCOCC2)nc1`: the TGI in the assay on A498 renal, with HCC-2998 colon, with HOP-92 NSCLC, in the assay on RXF 393 renal, with TK-10 renal and in the assay with K-562 leukemia was over 100 µM throughout. Also, the TGI in the assay with SW-620 colon, with BT-549 breast, in the assay with HOP-62 NSCLC and with HL-60(TB) leukemia was over 100 µM each time.

Take `NC(=O)Nc1ccc(C(=O)NCCCNC(=O)c2ccc(NC(N)=O)cc2)cc1`: the TGI in the assay on A498 renal, with HCC-2998 colon, in the assay with HOP-92 NSCLC, in the assay on RXF 393 renal, with TK-10 renal and in the assay on K-562 leukemia was over 100 µM each time. For the same compound, the TGI in the assay with SW-620 colon, in the assay on BT-549 breast, in the assay with HOP-62 NSCLC and in the assay with HL-60(TB) leukemia was over 100 µM throughout.
